As a reminder, the IC50 is the concentration needed to halve the response being measured. One may read the bioavailability as the share of a dose that reaches the circulation, judged against a reference dose that is usually intravenous. Broadly, the AUC is the area under the concentration-time curve, a measure of exposure. A higher AUC goes with more exposure. By AUC(0-inf) is commonly meant the area under the concentration-time curve extrapolated to infinity. A high value points to high exposure. By Cmax is commonly meant the highest concentration seen after dosing. For orientation: MRT means a mean duration of stay, worked out from the concentration-time curve. What is called Tmax is the time at which the peak concentration occurs. As usually defined, the half-life is how long it takes for the measured level to halve. A higher half-life goes with slow decline. As a reminder, the clearance is the rate of elimination divided by the concentration. A lower clearance goes with a low capacity for elimination.

Where two headings read alike, the source gives them in different places.

The source of these data is paper PMC6272426, “LC-ESI-MS/MS Analysis and Pharmacokinetics of GP205, an Innovative Potent Macrocyclic Inhibitor of Hepatitis C Virus NS3/4A Protease in Rats” (Molecules, 2015).

On the set-up of series [1]: method as in PMID 15732092. To be noted: rhesus monkeys; cited from earlier work.
The conditions of series [2]: Sprague-Dawley, rat, in vivo, po.
Description: (§1) The method developed above was applied to a pharmacokinetic study of GP205 to SD rats after single oral doses at 2.5, 5 and 10 mg/kg and an intravenous injection dose at 1 mg/kg.
(§2) Twenty four SD rats (12 males and 12 females), weighing 210 ± 8 g (mean ± SD) were fed with certified standard diet and tap water ad libitum. Temperature and humidity were regulated at 21–23 °C and 30%–60%, respectively. A light/dark cycle of 12 h on/12 h off was established. After 1 week of acclimatization, they were randomly divided into 4 groups (3 males and 3 females for each group). After fasted overnight, three groups of them received oral administration of GP205 at three dosages 2.5 mg/kg, 5 mg/kg, 10 mg/kg dissolved in mixed solvent (5% DMSO, 40% PEG-400, 55% physiological saline), respectively. The other group of them received an intravenous injection of GP205 at 1 mg/kg. […] Blood samples (100 μL) were collected into heparinized tubes before administration and at 0.083, 0.17, 0.33, 0.5, 1, 2, 3, 4, 6, 8, 12, 24, 36, 48 h after oral administration or before administration and at 0, 0.083, 0.17, 0.33, 0.5, 1, 2, 3, 4, 6, 8, 12, 24, 36 , 48 h after intravenous administration. The plasma was separated from heparinized blood by centrifugation at 3500 rpm for 10 min and stored at −80 °C prior to analysis.
For series [3] the following is noted: both, Sprague-Dawley, rat, in vivo, iv, 1 mg/kg.
Description: as §1, §2
Series [4] has as its target NS3 enzyme, genotype 1b HCV (HCV NS3/4A protease) (Hepatitis C virus genotype 1b, UniProt Q9WMX2). The experiment in a line: biochemical.
The nature of series [5]: in vivo. To be noted: Sprague-Dawley, rat.
Description: as §1, §2
The format of series [6] is physicochemical. The following applies: Stock solution. How it is done:
[table] Stock solutions of GP205 were prepared by dissolving an accurately weighed amount of reference standard in methanol to yield a final concentration of 1 mg/mL. The solutions were sonicated for 5 min to ensure complete dissolution. Then the solutions were allowed to equilibrate to room temperature and diluted to volume with methanol. Working standard solutions of GP205 in the concentration range of 20–50,000 ng/mL were prepared from individual aliquots of 1 mg/mL solution using methanol–water (95:5, v/v) as the diluent. The stock standard solution of IS was prepared by dissolving appropriate amount of paclitaxel in methanol at the concentration of 1 mg/mL. A 1 μg/mL IS working solution was obtained by diluting the stock solution of paclitaxel with methanol–water (95:5, v/v). All the solutions were stored at 4 °C and brought to room temperature before use. Calibration standards were prepared daily by spiking 5 μL of the appropriate standard solutions to 45 μL of the blank SD rat plasma. Plasma concentrations were 2, 5, 10, 50, 100, 200, 500, 2000 and 5000 ng/mL for GP205. QC samples, which were used in the validation and during the pharmacokinetics study, were prepared from different sources by independent dilution at three levels (5, 100, 4000 ng/mL) for GP205. QC samples were aliquoted into 1.5 mL non-sterile Eppendorf tubes and stored at −80 °C until analysis.

The conditions of series [7]: Sprague-Dawley, rat.
A short description of series [8]: in vivo. The following applies: both, Sprague-Dawley, rat, iv, 1 mg/kg.
Description: as §1, §2
On the set-up of series [9]: method as in PMID 24900304. To be noted: comparison value for MK-1220; cited from earlier work.
Where [10] appears, read: 4 °C for 40 days, nominal 5 ng/mL.
Where [11] appears, read: 4 °C for 40 days, nominal 100 ng/mL.
The mark [12] stands for this setting: 4 °C for 40 days, nominal 4000 ng/mL.
The mark [13] stands for this setting: 25 °C for 24 h, nominal 5 ng/mL.
The mark [14] stands for this setting: 25 °C for 24 h, nominal 100 ng/mL.
[15] abbreviates: 25 °C for 24 h, nominal 4000 ng/mL.

Chain of NS3 enzyme, genotype 1b HCV (HCV NS3/4A protease) (Q9WMX2 1027-1657): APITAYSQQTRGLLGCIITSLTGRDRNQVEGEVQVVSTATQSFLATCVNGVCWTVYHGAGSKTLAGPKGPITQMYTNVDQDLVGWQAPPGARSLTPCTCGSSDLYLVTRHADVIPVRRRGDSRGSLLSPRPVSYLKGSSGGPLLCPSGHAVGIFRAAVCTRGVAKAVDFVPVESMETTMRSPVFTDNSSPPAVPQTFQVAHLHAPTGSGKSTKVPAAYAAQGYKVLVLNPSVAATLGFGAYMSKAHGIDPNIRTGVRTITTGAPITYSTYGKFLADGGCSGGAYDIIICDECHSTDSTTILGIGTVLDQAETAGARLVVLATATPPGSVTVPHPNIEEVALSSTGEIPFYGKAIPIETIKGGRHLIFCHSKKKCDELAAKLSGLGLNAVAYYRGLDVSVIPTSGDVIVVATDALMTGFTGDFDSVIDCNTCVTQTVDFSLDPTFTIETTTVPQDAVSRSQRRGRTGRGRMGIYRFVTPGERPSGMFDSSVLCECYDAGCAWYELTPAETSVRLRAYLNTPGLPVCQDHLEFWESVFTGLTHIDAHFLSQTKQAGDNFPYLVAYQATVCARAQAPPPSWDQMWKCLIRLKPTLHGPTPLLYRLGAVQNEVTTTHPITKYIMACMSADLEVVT
Chain of NS3 enzyme, genotype 1b HCV (HCV NS3/4A protease) (Q9WMX2 1658-1711): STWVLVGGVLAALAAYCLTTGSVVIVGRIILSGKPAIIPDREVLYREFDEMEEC

Consider `COc1ccc2c(O[C@@H]3C[C@H]4C(=O)N[C@]5(C(=O)O)C[C@H]5/C=C\CCCCC[C@H](NC(=O)OC5CCCC5)C(=O)N4C3)cc(-c3csc(NC(C)C)n3)nc2c1` [BILN-2061], for which the Cardiotoxicity finding result in series [1] was “cardiotoxocity identified in rhesus monkeys”.

On to `C=C[C@@H]1C[C@]1(NC(=O)[C@@H]1C[C@@H]2CN1C(=O)[C@H](C1CCCCC1)NC(=O)[C@@H](NC(=O)OC(C)(C)C)COC/C=C/c1cc3c(nccc3cc1OC)O2)C(=O)NS(=O)(=O)C1CC1` [GP205, potassium tert-butyl N-[(3R,5S,8S,11S,15E)-8-cyclohexyl-5-{[(1R,2S)-1-[(cyclo-propanesulfonyl)carbamoyl]-2-ethenylcyclopropyl]carbamoyl}-18-methoxy-7,10-dioxo-2,13-dioxa-6,9,23-triazatetracyclo[15.6.2.13,6.020,24]hexacosa-1(23),15,17(25),18,20(24),21-hexaen-11-yl] carbamate monohydrate], for which the “AUC relative to MK-1220 (fold higher)” value in series [2] is reported as around 11 fold. Besides, in series [2], the “Cmax relative to MK-1220 (fold higher)” value is reported as “about 2 fold”. Moreover, the “Time of maximum plasma drug concentration” value in [2] (both) is “about 6 h”. This molecule also returned a VD in series [3] of 0.31 ± 0.12 L. The same molecule came in with an IC50 in series [4] of 4 nM. Also, the concentration at 1 h in series [5] (po, 2.5 mg/kg) is 716 ng/mL. The same molecule gave a bioavailability in series [5] (both) of 34%. Moreover, the AUC in [5] (both, po, 2.5 mg/kg) was 64300 ng·h/mL; in series [5] (both, po, 5 mg/kg), 122000 ng·h/mL; in series [5] (both, po, 10 mg/kg) it was 176000 ng·h/mL; in series [8] it was 66600 ng·h/mL. Moreover, the AUC(0-inf) in [5] (both, po, 2.5 mg/kg) was 70100 ng·h/mL; in series [5] (both, po, 5 mg/kg) it was 135000 ng·h/mL; in series [5] (both, po, 10 mg/kg), 205000 ng·h/mL; in [8], 75200 ng·h/mL. The Cmax in series [5] (both, po, 2.5 mg/kg) is 4260 ± 400 ng/mL; in [5] (both, po, 5 mg/kg), 6780 ± 750 ng/mL; in series [5] (both, po, 10 mg/kg) it was 9410 ± 583 ng/mL. For the same molecule, the mean residence time MRT in series [5] (both, po, 2.5 mg/kg) was found to be 19.4 ± 3.22 h; in [5] (both, po, 5 mg/kg), 22.2 ± 2.18 h; in series [5] (both, po, 10 mg/kg) it was 25.6 ± 3.48 h; in series [8], 20.8 ± 3.41 h. Moreover, the Tmax in [5] (both, po, 2.5 mg/kg) was 6.3 ± 0.8 h; in series [5] (both, po, 5 mg/kg), 6.3 ± 1.5 h; in series [5] (both, po, 10 mg/kg), 6.3 ± 0.8 h. In addition, the half-life in series [5] (both, po, 2.5 mg/kg, t1/2) was 12.4 ± 1.51 h; in [5] (both, po, 5 mg/kg, t1/2), 13.9 ± 1.48 h; in series [5] (both, po, 10 mg/kg, Elimination half time (t1/2)), 12.4 to 17.2 h; in [5] (both, po, 10 mg/kg, t1/2), 17.2 ± 2.73 h; in [8], 16.3 ± 2.99 h. Moreover, the Accuracy is reported as 2.8% in series [6] (setting [10]); 0.6% in series [6] (setting [11]); −0.2% in [6] (setting [12]); 1.8% in series [6] (setting [13]); 3.3% in series [6] (setting [14]); −0.3% in series [6] (setting [15]). The Accuracy is given as −5.5% in series [7] (5 ng/mL); −5.1% in series [7] (100 ng/mL); −1.9% in series [7] (4000 ng/mL); −3.3% in [7] (4 h, 5 ng/mL); −1.6% in series [7] (4 h, 100 ng/mL); −2.9% in series [7] (4 h, 4000 ng/mL). Also, the Accuracy in [7] (24 h, 5 ng/mL) is recorded as −4.2%; in series [7] (24 h, 100 ng/mL), −3.9%; in series [7] (24 h, 4000 ng/mL) it was −2.4%; in [7] (40 days, 5 ng/mL), −7.7%; in [7] (40 days, 100 ng/mL), −7.2%; in [7] (40 days, 4000 ng/mL) it was −4.7%. The “Measured Conc.” value in series [6] (setting [10]) is given as 5.14 ng/mL; in series [6] (setting [11]) it was 100.63 ng/mL; in series [6] (setting [12]), 3992.75 ng/mL; in series [6] (setting [13]), 5.09 ng/mL; in series [6] (setting [14]) it was 103.26 ng/mL; in series [6] (setting [15]), 3987.91 ng/mL. Also, the “Measured Conc.” value in series [7] (5 ng/mL) is on record as 4.73 ng/mL; in series [7] (100 ng/mL) it was 94.90 ng/mL; in series [7] (4000 ng/mL), 3925.86 ng/mL; in [7] (4 h, 5 ng/mL), 4.84 ng/mL; in series [7] (4 h, 100 ng/mL), 98.39 ng/mL; in series [7] (4 h, 4000 ng/mL), 3884.71 ng/mL. For the same molecule, the “Measured Conc.” value in series [7] (24 h, 5 ng/mL) amounted to 4.79 ng/mL; in series [7] (24 h, 100 ng/mL), 96.13 ng/mL; in [7] (24 h, 4000 ng/mL), 3904.44 ng/mL; in [7] (40 days, 5 ng/mL) it was 4.61 ng/mL; in series [7] (40 days, 100 ng/mL) it was 92.84 ng/mL; in series [7] (40 days, 4000 ng/mL), 3812.43 ng/mL. Also, the C0 in series [8] came out at 9510 ± 442 ng/mL. The same molecule had a clearance in [8] of 0.333 mL/min/kg.

Turning to `C=C[C@@H]1C[C@]1(NC(=O)[C@@H]1C[C@@H]2CN1C(=O)[C@H](C1CCCCC1)NC(=O)OCC(C)(C)CCCc1cc3c(nccc3cc1OC)O2)C(=O)NS(=O)(=O)C1CC1` [MK-1220], the t1/2 entry in series [9] is “about 6 h”. For the same molecule, the IC50 in [4] (NS3 enzyme, genotype 1b HCV, in vitro, read-out: IC50) turned out to be 11 nM.

`CCC[C@H](NC(=O)[C@@H]1[C@H]2CCC[C@H]2CN1C(=O)[C@@H](NC(=O)[C@@H](NC(=O)c1cnccn1)C1CCCCC1)C(C)(C)C)C(=O)C(=O)NC1CC1` [telaprevir] returned an IC50 in [4] of 95 nM.
